Read-outs that look alike come from different tables or passages of the source.
Experiments:
[1] = target: T1, ACE (Angiotensin I converting enzyme) (Sus scrofa, UniProt F1RRW5); test: Inhibition of ACE (Hip-His-Leu substrate, O-phthal aldehyde fluorescence); format: biochemical, pig
T1 construct: the ACE obtained from renal cortex of pig; from tissue; host or cells: renal cortex of pig
T1 sequence (F1RRW5 34-1309): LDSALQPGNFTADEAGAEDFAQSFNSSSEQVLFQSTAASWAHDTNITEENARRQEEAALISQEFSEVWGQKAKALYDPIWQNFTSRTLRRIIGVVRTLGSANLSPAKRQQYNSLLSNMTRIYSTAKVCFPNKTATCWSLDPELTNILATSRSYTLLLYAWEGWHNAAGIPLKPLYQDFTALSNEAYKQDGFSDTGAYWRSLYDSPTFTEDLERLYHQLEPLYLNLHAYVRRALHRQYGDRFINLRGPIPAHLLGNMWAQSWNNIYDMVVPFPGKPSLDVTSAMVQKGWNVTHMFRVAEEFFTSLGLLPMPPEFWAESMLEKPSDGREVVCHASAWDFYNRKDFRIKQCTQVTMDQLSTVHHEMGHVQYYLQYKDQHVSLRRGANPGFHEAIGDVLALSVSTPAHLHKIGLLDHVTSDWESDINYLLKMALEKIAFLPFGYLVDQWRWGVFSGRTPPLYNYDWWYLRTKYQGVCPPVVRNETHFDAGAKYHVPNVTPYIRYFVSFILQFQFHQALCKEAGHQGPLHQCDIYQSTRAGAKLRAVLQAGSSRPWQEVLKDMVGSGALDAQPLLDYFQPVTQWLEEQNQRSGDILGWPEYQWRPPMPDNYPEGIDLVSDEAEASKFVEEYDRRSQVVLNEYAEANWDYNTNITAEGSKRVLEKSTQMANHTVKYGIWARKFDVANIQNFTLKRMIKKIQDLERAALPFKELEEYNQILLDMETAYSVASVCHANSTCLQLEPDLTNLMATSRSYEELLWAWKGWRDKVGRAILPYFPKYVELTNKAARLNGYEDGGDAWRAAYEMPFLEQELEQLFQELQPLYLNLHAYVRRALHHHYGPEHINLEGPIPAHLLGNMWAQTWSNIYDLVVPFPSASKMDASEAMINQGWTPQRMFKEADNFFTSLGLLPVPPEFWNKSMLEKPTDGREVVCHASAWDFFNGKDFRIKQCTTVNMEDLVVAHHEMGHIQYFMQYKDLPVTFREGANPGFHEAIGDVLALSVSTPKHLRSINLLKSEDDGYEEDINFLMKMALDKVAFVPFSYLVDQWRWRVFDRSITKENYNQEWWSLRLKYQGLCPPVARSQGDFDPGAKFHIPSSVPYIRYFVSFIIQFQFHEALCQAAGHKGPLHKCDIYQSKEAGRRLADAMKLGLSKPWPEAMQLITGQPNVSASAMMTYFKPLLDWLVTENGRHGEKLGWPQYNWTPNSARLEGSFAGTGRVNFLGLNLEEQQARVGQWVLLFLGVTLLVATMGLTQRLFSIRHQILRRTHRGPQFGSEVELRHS
From the text: The activity of ACE inhibition was expressed by the equation
in which S was the intensity of the fluorescence in the above described procedure with the sample solution, A was the value of the blank test by replacing the sample solution with the same volume of water and B was the value obtained by replacing the enzyme solution with the same volume of pure water.

[2] = target: T2, carboxypeptidase A (Bos taurus, UniProt P00730); test: Inhibition of carboxypeptidase A; format: biochemical
T2 sequence (P00730 111-419): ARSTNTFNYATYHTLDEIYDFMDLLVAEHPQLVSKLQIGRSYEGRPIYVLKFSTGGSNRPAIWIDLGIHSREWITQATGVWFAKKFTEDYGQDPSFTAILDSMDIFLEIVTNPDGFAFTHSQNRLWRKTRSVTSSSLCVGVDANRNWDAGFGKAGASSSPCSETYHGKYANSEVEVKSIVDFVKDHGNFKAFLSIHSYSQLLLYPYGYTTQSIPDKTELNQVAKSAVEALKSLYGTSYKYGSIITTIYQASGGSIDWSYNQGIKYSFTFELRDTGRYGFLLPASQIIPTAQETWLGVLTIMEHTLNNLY

[3] = test system: Spontaneously Hypertensive Rats; test: Systolic blood pressure of SHR fed epigallocatechin gallate in the diet (FIG. 4); format: in vivo; details: 8 weeks old, 0.5% in diet, after seven weeks feeding, control continued to rise
From the text: Three SHR (Spontaneously Hypertensive Rats) of 8 weeks old were fed on the diet which consisted of 99.5% of normal diet and 0.5% of epigallocatechin gallate mixed together. As a control two SHR of the same stock were fed on a 100% normal diet. After seven weeks feeding the blood pressure of tea polyphenol fed group levelled off while the blood pressure of the control group continued to rise. In FIG. 4, the curve A denotes the systolic blood pressure of control group while B denotes the systolic blood pressure of test group.

[4] = Acute oral toxicity in mice (LD50); details: mouse, in vivo, male ICR mice, 8 weeks old, read-out: LD50 of one week
[5] = ACE from renal cortex of pig, Hip-His-Leu substrate, 37° C.

Row | IC50 [1, 5] [µM] | IC50 [2] [µM] | SMILES | IC50 [1] [µM] | blood pressure (in words) [3] | LD50 at 168 h [4] [mg/kg]
1 | 110 | > 5000 | O=C(O[C@@H]1Cc2c(O)cc(O)cc2O[C@@H]1c1cc(O)c(O)c2c(=O)c(O)cc([C@H]3Oc4cc(O)cc(O)c4C[C@H]3O)cc12)c1cc(O)c(O)c(O)c1 [Theaflavin monogallate B, theaflavin monogallate B] |  |  | 
2 | 400 | > 5000 | O=c1c(O)cc([C@H]2Oc3cc(O)cc(O)c3C[C@H]2O)cc2c([C@H]3Oc4cc(O)cc(O)c4C[C@H]3O)cc(O)c(O)c12 [Free theaflavin, free theaflavin] |  |  | 
3 | 115 | > 5000 | O=C(O[C@@H]1Cc2c(O)cc(O)cc2O[C@@H]1c1cc(O)c(=O)c2c(O)c(O)cc([C@H]3Oc4cc(O)cc(O)c4C[C@H]3O)c2c1)c1cc(O)c(O)c(O)c1 [Theaflavin monogallate A, theaflavin monogallate A] |  |  | 

Row | SMILES | IC50 [1, 5] [µM] | IC50 [2] [µM] | IC50 [1] [µM] | blood pressure (in words) [3] | LD50 at 168 h [4] [mg/kg]
4 | O=C(O[C@@H]1Cc2c(O)cc(O)cc2O[C@@H]1c1cc(O)c(O)c(O)c1)c1cc(O)c(O)c(O)c1 [(-)-Epigallocatechin gallate, (-)-epigallocatechin gallate] |  | 3000 | 90 | levelled off | 2310

— patent publication US4840966A, “Method of treating hypertension” (Mitsui Norin Co., Ltd., priority 1987, dated 1989)
